{
  "source": "ChEMBL document CHEMBL1201862",
  "about": "“PubChem BioAssay data set” (2004)",
  "key": {"[1]": {"molecular_target": "T1, Tyrosine-protein phosphatase non-receptor type 7 (Homo sapiens, UniProt P35236)", "T1 sequence (P35236 whole entry)": "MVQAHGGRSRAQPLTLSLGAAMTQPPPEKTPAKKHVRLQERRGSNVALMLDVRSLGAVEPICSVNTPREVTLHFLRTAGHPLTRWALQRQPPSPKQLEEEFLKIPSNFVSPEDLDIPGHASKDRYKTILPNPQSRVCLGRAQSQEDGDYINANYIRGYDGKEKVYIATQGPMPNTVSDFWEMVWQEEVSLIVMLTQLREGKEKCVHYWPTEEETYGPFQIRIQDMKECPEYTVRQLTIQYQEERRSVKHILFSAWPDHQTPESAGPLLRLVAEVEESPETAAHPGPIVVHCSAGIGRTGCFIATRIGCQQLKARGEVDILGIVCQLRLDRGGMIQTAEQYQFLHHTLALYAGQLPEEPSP", "format": "functional"}, "[2]": {"molecular_target": "DNA dC->dU-editing enzyme APOBEC-3G (Homo sapiens, UniProt Q9HC16)", "sequence (Q9HC16 whole entry)": "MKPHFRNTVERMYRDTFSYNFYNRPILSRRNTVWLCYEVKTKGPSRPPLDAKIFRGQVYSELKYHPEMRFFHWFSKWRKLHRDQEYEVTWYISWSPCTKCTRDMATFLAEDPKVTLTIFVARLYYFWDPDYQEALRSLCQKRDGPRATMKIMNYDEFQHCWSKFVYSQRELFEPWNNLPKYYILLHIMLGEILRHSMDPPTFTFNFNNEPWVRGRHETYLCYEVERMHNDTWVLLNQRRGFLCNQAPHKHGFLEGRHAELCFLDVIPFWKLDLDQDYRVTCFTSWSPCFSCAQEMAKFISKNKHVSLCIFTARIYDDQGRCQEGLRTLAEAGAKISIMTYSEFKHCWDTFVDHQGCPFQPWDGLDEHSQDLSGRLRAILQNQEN", "test": "Dose Response confirmation of small molecule APOBEC3G DNA Deaminase Inhibitors via a fluorescence-based single-stranded DNA deaminase assay. [Related pubchem assays (depositor defined):AID493012, AID493028]", "format": "functional"}, "[3]": {"molecular_target": "T2, Voltage-gated N-type calcium channel alpha-1B subunit/Amyloid beta A4 precursor protein-binding family A member 1 (Homo sapiens, UniProt Q00975+Q02410)", "T2 sequence (Q00975 whole entry)": "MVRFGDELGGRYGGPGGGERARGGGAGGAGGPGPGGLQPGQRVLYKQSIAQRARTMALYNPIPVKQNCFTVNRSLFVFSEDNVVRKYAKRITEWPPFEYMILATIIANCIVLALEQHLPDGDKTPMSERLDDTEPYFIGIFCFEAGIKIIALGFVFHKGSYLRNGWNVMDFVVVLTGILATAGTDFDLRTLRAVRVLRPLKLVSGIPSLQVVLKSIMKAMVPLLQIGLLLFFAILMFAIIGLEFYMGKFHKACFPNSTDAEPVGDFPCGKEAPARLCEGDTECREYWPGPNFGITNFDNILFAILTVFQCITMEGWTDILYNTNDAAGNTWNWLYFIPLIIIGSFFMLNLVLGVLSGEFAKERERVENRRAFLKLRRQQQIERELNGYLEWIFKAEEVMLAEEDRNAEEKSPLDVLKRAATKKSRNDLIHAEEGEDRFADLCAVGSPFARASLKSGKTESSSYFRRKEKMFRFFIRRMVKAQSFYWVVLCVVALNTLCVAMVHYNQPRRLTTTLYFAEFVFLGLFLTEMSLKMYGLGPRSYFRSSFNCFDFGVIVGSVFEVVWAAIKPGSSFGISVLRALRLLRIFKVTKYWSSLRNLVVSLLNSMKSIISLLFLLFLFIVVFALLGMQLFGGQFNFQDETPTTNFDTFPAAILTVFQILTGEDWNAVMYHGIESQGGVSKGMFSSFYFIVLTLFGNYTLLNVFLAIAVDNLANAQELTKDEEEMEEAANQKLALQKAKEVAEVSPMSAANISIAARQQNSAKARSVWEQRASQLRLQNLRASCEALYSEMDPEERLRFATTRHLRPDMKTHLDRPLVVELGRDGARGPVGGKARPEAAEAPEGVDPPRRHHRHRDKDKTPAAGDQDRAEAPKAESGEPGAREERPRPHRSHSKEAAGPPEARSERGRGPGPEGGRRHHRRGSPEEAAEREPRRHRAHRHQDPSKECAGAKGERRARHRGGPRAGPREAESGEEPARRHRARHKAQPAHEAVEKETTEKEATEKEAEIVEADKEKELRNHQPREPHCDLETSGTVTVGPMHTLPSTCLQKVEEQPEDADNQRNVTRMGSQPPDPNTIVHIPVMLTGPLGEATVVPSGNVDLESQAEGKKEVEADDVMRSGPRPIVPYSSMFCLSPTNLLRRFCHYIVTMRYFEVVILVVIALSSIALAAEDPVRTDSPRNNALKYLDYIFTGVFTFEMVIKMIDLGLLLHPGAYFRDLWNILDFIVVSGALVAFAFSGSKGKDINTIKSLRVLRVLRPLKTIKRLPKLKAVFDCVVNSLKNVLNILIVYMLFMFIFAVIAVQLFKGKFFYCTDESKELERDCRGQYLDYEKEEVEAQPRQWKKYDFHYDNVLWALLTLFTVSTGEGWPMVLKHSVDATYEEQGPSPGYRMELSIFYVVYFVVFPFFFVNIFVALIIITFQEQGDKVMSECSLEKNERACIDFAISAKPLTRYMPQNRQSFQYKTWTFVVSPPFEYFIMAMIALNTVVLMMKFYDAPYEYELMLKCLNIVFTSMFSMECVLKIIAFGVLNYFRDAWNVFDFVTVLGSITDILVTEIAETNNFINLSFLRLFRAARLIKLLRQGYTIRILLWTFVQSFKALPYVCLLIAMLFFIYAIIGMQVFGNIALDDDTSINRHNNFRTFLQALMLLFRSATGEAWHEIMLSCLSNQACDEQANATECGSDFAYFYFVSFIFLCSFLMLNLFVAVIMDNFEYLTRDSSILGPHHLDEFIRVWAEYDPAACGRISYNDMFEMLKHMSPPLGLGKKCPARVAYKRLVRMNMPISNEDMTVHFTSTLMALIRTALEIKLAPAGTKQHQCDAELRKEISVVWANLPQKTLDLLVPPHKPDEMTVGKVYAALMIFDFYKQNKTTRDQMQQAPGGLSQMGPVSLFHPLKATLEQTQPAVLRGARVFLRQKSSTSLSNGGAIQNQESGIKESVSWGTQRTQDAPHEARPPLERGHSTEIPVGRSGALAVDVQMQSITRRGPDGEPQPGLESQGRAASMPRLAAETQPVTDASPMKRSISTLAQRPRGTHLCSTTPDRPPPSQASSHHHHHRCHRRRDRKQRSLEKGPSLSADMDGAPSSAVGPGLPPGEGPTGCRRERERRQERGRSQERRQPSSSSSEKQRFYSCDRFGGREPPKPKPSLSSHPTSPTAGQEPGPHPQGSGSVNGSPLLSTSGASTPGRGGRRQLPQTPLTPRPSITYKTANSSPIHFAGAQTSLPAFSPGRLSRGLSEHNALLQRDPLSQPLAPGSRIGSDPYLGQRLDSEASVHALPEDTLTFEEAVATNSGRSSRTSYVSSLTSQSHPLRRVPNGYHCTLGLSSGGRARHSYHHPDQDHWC", "T2 sequence (Q02410 whole entry)": "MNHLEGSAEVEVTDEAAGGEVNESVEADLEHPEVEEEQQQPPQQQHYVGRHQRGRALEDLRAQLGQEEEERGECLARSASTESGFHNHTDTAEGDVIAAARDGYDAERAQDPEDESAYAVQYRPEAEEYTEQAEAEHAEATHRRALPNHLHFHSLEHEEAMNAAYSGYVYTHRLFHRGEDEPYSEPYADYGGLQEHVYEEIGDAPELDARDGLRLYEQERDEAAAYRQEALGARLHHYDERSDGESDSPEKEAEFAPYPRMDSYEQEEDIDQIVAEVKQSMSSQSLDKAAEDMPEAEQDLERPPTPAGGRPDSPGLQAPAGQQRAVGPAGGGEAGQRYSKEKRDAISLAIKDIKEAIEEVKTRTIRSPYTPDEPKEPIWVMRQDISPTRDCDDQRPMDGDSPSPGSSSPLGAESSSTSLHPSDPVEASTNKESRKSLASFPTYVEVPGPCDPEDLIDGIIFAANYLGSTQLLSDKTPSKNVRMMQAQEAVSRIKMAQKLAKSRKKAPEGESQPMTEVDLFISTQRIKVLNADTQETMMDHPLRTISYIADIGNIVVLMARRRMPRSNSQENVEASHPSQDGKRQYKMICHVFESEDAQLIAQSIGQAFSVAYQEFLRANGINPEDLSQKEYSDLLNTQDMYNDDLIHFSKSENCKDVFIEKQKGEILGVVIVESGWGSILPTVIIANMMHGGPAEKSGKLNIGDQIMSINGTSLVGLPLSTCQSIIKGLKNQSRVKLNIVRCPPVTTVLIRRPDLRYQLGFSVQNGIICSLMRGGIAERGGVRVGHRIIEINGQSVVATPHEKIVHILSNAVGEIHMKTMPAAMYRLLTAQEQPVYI", "format": "protein assay"}, "[4]": {"molecular_target": "T3, Tyrosine-protein phosphatase non-receptor type 22 (Homo sapiens, UniProt Q9Y2R2)", "T3 sequence (Q9Y2R2 whole entry)": "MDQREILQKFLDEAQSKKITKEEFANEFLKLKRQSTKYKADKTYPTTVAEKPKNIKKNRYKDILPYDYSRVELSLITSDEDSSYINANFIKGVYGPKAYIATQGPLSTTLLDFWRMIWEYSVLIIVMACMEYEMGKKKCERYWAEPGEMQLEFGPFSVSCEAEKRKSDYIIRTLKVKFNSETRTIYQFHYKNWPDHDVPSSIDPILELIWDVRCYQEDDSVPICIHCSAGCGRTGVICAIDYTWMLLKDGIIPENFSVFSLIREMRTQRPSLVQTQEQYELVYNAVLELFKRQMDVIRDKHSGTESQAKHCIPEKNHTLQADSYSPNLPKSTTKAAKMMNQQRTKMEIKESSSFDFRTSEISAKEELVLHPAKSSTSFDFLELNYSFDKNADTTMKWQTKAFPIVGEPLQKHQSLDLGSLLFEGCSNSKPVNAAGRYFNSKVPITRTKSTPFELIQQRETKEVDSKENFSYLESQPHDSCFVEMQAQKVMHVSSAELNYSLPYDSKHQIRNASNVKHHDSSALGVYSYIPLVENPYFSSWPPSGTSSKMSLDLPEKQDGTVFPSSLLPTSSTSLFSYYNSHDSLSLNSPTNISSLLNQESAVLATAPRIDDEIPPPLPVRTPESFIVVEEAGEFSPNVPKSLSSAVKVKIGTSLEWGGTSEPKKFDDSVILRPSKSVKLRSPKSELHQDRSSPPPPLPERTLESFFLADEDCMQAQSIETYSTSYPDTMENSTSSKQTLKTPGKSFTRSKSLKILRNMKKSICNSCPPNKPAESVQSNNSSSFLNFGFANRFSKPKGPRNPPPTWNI", "format": "functional"}, "[5]": {"molecular_target": "T3, Tyrosine-protein phosphatase non-receptor type 22", "format": "functional", "remark": "listed apart in the source"}, "[6]": {"molecular_target": "T2, Voltage-gated N-type calcium channel alpha-1B subunit/Amyloid beta A4 precursor protein-binding family A member 1", "format": "protein assay", "remark": "listed apart in the source"}, "[7]": {"test": "inhibition of Env-driven cell fusion – HIV entry, plate reader, dry powder, dose response (AID 687023)", "format": "functional, cell-based"}, "Hexokinase HKDC1": {"molecular_target": "T4, Hexokinase HKDC1 (Homo sapiens, UniProt Q2TB90)", "T4 sequence (Q2TB90 whole entry)": "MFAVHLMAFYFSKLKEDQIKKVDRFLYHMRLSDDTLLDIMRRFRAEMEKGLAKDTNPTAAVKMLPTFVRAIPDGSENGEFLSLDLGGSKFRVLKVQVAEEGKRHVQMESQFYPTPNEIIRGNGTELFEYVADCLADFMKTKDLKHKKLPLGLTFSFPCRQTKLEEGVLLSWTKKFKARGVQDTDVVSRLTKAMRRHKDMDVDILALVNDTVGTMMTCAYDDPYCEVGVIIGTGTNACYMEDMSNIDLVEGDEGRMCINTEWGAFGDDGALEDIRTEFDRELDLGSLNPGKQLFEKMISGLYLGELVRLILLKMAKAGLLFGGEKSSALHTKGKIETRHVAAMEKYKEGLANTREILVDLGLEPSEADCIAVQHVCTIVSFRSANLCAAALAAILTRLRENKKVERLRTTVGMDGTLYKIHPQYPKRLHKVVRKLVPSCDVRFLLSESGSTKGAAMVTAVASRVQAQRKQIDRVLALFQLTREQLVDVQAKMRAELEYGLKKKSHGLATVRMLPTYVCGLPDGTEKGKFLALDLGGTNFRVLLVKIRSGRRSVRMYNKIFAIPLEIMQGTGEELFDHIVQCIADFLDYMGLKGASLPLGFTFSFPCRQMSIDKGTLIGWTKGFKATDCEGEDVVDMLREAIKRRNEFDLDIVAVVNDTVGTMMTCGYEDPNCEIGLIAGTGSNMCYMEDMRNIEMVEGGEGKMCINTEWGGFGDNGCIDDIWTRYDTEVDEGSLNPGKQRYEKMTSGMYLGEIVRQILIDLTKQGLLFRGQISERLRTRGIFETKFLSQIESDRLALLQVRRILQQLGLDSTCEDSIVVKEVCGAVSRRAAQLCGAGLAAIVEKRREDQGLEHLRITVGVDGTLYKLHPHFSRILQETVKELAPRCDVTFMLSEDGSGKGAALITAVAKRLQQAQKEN", "test": "activation of HKDC1 glucose phosphorylation – biochemical, W721R variant, dose response (AID 504730)", "format": "functional"}, "[8]": {"test": "blockers of HIV-1 ZM109 envelope-driven cell-cell fusion – HeLa effector, CEM target cells, luciferase, cherry-pick, dose response (AID 652058)", "format": "functional, cell-based"}, "[9]": {"molecular_target": "T5, Probable nicotinate-nucleotide adenylyltransferase (Staphylococcus aureus (strain N315), UniProt P65502)", "T5 sequence (P65502 whole entry)": "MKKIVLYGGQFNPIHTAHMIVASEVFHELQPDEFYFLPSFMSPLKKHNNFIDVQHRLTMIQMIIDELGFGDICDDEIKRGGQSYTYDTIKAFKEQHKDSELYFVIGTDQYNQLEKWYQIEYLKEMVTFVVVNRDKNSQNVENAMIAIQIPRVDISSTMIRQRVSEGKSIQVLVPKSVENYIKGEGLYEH", "format": "functional, Staphylococcus aureus subsp. aureus N315", "conditions": "read-out: IC50_Mean"}, "[10]": {"test": "viability loss in CEM21 cells – cell-based, plate reader, dry powder, cytotoxicity control, dose response (AID 687026)", "format": "functional"}, "[11]": {"test": "HIV-1 AD8 envelope cell-cell fusion blockers – cherry-pick, dose response (AID 652062);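 further: potency is for inhibitors of fusion seen as a drop in luminescence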", "format": "functional, cell-based"}, "[12]": {"tested_on": "Streptococcus sp. 'group A'", "test": "Streptococcus pyogenes SK(-)GAS viability under kanamycin – luminescence, BacTiterGlo, confirmation, counter-screen for streptokinase expression inhibitor project, dose response (AID 1900)", "format": "functional, organism-based"}, "Hexokinase-1": {"molecular_target": "Hexokinase-1 (Homo sapiens, UniProt P19367)", "test": "HK1 enzyme activation by HKDC1 hits – biochemical, selectivity assay for HKDC1 activator project, dose response (AID 504762)", "format": "functional"}, "[13]": {"test": "fluconazole-exposed Candida albicans growth modulators – fluorescence, retest, confirmation (AID 2467)", "format": "functional, cell-based"}, "[14]": {"test": "blockers of HIV-1 envelope-mediated cell-cell fusion – cherry-pick, dose response (AID 652057)", "format": "functional, cell-based"}, "Streptococcus": {"tested_on": "Streptococcus", "test": "GAS UMAA2166 growth inhibition – luminescence, BacTiterGlo, counter-screen for streptokinase expression inhibitor project, dose response (AID 1915);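 further: potency for reduction of bacterial viability or growth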", "format": "functional, organism-based"}, "[15]": {"molecular_target": "T5, Probable nicotinate-nucleotide adenylyltransferase", "format": "functional, Staphylococcus aureus subsp. aureus N315"}, "[16]": {"test": "NIH-3T3 fibroblast cytotoxicity, dose response, cytotoxicity control, cell-based, fluorescence, Alamar Blue, secondary assay (AID 2327);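 further: NIH-3T3 mouse fibroblasts cultured with fluconazole at 8 µg/mL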", "format": "functional"}, "[17]": {"molecular_target": "T6, G-protein coupled receptor 35 (Homo sapiens, UniProt Q9HC97)", "T6 sequence (Q9HC97 whole entry)": "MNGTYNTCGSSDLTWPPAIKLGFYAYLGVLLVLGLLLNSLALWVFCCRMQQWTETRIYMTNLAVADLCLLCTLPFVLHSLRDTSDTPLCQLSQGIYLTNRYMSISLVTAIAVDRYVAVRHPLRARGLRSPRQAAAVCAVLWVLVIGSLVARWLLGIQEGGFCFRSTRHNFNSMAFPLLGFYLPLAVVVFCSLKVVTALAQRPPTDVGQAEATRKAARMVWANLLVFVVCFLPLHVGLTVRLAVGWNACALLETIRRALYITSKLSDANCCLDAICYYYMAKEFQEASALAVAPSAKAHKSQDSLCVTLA", "test": "SAR analysis of Antagonists of the GPR35 Receptor using an Image-Based Assay - Set 6. [Related pubchem assays (depositor defined):AID2013, AID2026]", "format": "functional"}, "Cannabinoid receptor 2 [18]": {"molecular_target": "T7, Cannabinoid receptor 2 (Homo sapiens, UniProt P34972)", "T7 sequence (P34972 whole entry)": "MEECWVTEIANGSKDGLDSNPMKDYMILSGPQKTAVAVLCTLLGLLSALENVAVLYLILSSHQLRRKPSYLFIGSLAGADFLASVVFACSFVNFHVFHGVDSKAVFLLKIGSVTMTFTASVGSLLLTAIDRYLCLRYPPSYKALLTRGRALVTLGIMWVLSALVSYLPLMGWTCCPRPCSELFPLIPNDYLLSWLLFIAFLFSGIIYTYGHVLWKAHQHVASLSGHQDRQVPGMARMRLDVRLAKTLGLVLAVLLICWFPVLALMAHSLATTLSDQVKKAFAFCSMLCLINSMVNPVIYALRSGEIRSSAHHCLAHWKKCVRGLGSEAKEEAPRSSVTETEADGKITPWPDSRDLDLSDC", "test": "SAR analysis of antagonists of the Cannabinoid Receptor 2 using an Image-Based Assay - Set 3. [Related pubchem assays (depositor defined):AID2013, AID2026]", "format": "functional"}, "[19]": {"molecular_target": "G-protein coupled receptor 55 (Homo sapiens, UniProt Q9Y2T6)", "test": "SAR Analysis of Selective Antagonists of GPR55 using an Image-Based Assay - Set 4. [Related pubchem assays (depositor defined):AID2013, AID2026]", "format": "functional"}, "Cannabinoid receptor 1 [20]": {"molecular_target": "T8, Cannabinoid receptor 1 (Homo sapiens, UniProt P21554)", "T8 sequence (P21554 whole entry)": "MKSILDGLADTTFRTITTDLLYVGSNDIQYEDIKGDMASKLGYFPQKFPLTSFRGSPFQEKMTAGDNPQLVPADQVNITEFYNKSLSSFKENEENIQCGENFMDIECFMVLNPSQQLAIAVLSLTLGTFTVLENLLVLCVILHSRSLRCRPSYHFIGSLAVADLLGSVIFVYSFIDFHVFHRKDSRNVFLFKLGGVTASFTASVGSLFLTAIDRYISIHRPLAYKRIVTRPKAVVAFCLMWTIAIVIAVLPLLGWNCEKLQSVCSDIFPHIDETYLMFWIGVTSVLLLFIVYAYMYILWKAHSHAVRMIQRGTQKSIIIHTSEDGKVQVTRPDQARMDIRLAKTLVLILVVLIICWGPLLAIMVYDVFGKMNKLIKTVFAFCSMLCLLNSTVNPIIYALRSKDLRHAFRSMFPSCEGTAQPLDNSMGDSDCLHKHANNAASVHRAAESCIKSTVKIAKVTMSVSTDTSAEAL", "test": "SAR analysis of antagonists of the Cannabinoid Receptor 1 using an Image-Based Assay - Set 4. [Related pubchem assays (depositor defined):AID2013, AID2026]", "format": "functional"}, "Cannabinoid receptor 1 [21]": {"molecular_target": "T8, Cannabinoid receptor 1", "test": "SAR analysis of agonists of the Cannabinoid Receptor 1 using an Image-Based Assay - Set 4. [Related pubchem assays (depositor defined):AID2013, AID2026]", "format": "functional"}, "Cannabinoid receptor 2 [22]": {"molecular_target": "T7, Cannabinoid receptor 2", "test": "SAR analysis of agonists of the Cannabinoid Receptor 2 using an Image-Based Assay - Set 3. [Related pubchem assays (depositor defined):AID2013, AID2026]", "format": "functional"}, "[23]": {"molecular_target": "T6, G-protein coupled receptor 35", "test": "SAR analysis of Agonists of the GPR35 Receptor using an Image-Based Assay - Set 4. [Related pubchem assays (depositor defined):AID2013, AID2026]", "format": "functional"}},
  "note": "Calls of active or inactive are those of the source.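 Wherever IC50 Mean is given: confirmatory dose-response retesting of NadD inhibitor hits first found in an ultra-high-throughput screen.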",
  "data": [
    {"smiles": "COc1ccc(NC(=O)CN2C(=O)/C(=C3\\SC(=S)N(CCC(=O)O)C3=O)c3ccccc32)cc1", "values": [
      {"measurement": "IC50", "setting": "[1]", "result": "6.84 µM (active)"},
      {"measurement": "IC50", "setting": "[2]", "result": "40.9 µM (active)"},
      {"measurement": "IC50", "setting": "[3]", "result": "> 50 µM (inactive)"},
      {"measurement": "IC50", "setting": "[4]", "result": "6.11 µM (active)"},
      {"measurement": "IC50", "setting": "[5]", "result": "13.8 µM (active)"},
      {"measurement": "IC50", "setting": "[6]", "result": "14.5 µM (active)"}
    ]},
    {"smiles": "COc1ccc(-c2cc(C(=O)NNC(=S)NC(=O)c3c(-c4ccccc4)noc3C)[nH]n2)cc1", "values": [
      {"measurement": "AC50", "setting": "[7]", "result": "2.1 µM (active)"},
      {"measurement": "EC50", "setting": "Hexokinase HKDC1", "result": "3.62 µM (active)"},
      {"measurement": "AC50", "setting": "[8]", "result": "2.61 µM (active)"},
      {"measurement": "IC50", "setting": "[9]", "result": "26.1 µM (active)"},
      {"measurement": "AC50", "setting": "[10]", "result": "> 70 µM (inactive)"},
      {"measurement": "AC50", "setting": "[11]", "result": "4.51 µM (active)"},
      {"measurement": "EC50", "setting": "[12]", "result": "263 nM (active)"},
      {"measurement": "EC50", "setting": "Hexokinase-1", "result": "> 80 µM (inactive)"},
      {"measurement": "EC50", "setting": "[13]", "result": "> 38 µM (not active)"},
      {"measurement": "AC50", "setting": "[14]", "result": "12 µM (active)"},
      {"measurement": "EC50", "setting": "Streptococcus", "result": "4.58 µM (active)"},
      {"measurement": "IC50", "setting": "[15]", "result": "6.51 µM (active)"},
      {"measurement": "EC50", "setting": "[16]", "result": "53.9 µM (active)"}
    ]},
    {"smiles": "Cc1cc(C)nc(NS(=O)(=O)c2ccc(NC(=O)c3cc(-c4ccccc4)nc4ccccc34)cc2)n1", "values": [
      {"measurement": "IC50", "setting": "[17]", "result": "> 32 µM (inactive)"},
      {"measurement": "IC50", "setting": "Cannabinoid receptor 2 [18]", "result": "> 32 µM (inactive)"},
      {"measurement": "IC50", "setting": "[19]", "result": "13.7 µM (inactive)"},
      {"measurement": "IC50", "setting": "Cannabinoid receptor 1 [20]", "result": "4.92 µM (active)"},
      {"measurement": "EC50", "setting": "Cannabinoid receptor 1 [21]", "result": "> 32 µM (inactive)"},
      {"measurement": "EC50", "setting": "Cannabinoid receptor 2 [22]", "result": "> 32 µM (inactive)"},
      {"measurement": "EC50", "setting": "[23]", "result": "> 32 µM (inactive)"}
    ]}
  ]
}
